Converted amounts (≈) assume the structure as drawn.
How the values were obtained:
[1] = cited from earlier work; for Sol (Exp): experimental water solubility; for solubility: aqueous, at 25° C.
[2] = cited from earlier work; for log P Exp.: experimentally determined, database entry; for Log P: known values used for standard curve
[3] = Experimental water solubility of alcohol compounds at 25° C.

| Structure (SMILES) | Sol (Exp) ([1]; 25° C.) [g/L] | log P Exp. [2] | other results |
| --- | --- | --- | --- |
| CC(C)CCCO [4-Methyl-1-pentanol] | 7.6 |  |  |
| Cc1ccccc1O [2-methyl phenol] | 25.9 |  |  |
| CC(C)CCO [3-methyl-1-butanol] | 26.7 |  |  |
| CCCCC(C)O (centres unmarked) [2-hexanol] | 13.7 | 1.76 | Log P [2]: 1.76 |
| CC(C)=CCO [3-Methyl-2-buten-1-ol] |  | 1.244 |  |
| CC(C)CC(C)(C)O [2,4-Dimethyl-2-pentanol] | 13.6 |  |  |
| CC=CC=CCO [2,4-Hexadien-1-ol] |  | 1.334 |  |
| CCC(CC)CO [2-Ethyl-1-butanol] | 4 |  |  |
| CC(C)C(O)C(C)C [2,4-Dimethyl-3-pentanol] | 7 |  |  |
| CCC(C)C(C)(C)O (centres unmarked) [2,3-Dimethyl-2-pentanol] | 15.7 |  |  |
| CCCC(C)O (centres unmarked) [2-pentanol] | 44.6 |  | Log P [2]: 1.19 |
| CCC(C)(C)CO [2,2-Dimethyl-1-butanol] | 7.6 |  |  |
| CCC(O)CC [3-pentanol] | 51.5 | 1.21 | Log P [2]: 1.21 |
| CCCC(O)CC (centres unmarked) [3-hexanol] | 16.1 | 1.65 | Log P [2]: 1.65; Solubility (at 25° C.) ([1]; water, 25° C., known values used for standard curve): 16.1 mg/mL (≈ 158 mM) |
| CCCCCCCCO [n-octanol] |  |  | solubility [1]: 0.5 grams per liter |
| CCCCCO [n-pentanol] | 22 | 1.51 | Log P [2]: 1.51; solubility [1]: 22 grams per liter; solubility converted to percent by weight of an aqueous composition [3]: 2.2 % by weight |
| CC(C)C(C)(C)O [2,3-Dimethyl-2-butanol] | 43.5 |  |  |

From US12714097B2, “Compositions and systems for disinfection” (Markesbery Blue Pearl LLC, priority 2017, dated 2026)
